Data on six compounds can be found in patent US8877949B2, “Furo[3,2-g]chromene compounds and uses thereof” (Shenyang Pharmaceutical University, priority 2010, dated 2014).

The subject of experiment [1] is MCF-7 cells or BG-1 cells. Kind of experiment: Effect on the proliferation of breast cancer cells (MCF-7 or BG-1 cells in nude mice). Type of experiment: in vivo. The note with it: Mus musculus; n = 2. As to the method: Using standard pharmacological experimental methods easily found in reference documents, the capabilities of the inventive compounds to treat and inhibit different types of malignant tumors or over-proliferation diseases can be evaluated.
Spayed athymic nu/nu (nude) mice were used. One day before the injection of tumor cells, a release-controlled pill containing 0.36-1.7 mg of β estradiol (60- or 90-day release) or a placebo was implanted into the animal. The pill was introduced into the endo-sculpture zone subcutaneously using a 10-scaled precise rotor. Next, 1×10^7 MCF-7 cells or 1×10^7 BG-1 cells were injected into breast tissues of the mice subcutaneously. The cells were mixed with matrigel with a same volume, and the latter was a liquid preparation of basilar membrane substrate, so as to facilitate tumor construction. One day after the implantation of the tumor cells (i.e. an inhibition protocol), or after the tumor had reached a certain volume (i.e. a treatment protocol), the tested compounds could be evaluated through administration. The saline containing the compound in a 1% Tween-80 vehicle was administered intraperitoneally or orally every day. The volumes of the tumors were evaluated every 3 or 7 days.

Experiment [2] concerns LDL cell-mediated oxidation. Kind of experiment: Inhibition of LDL oxidation, antioxidant activity (TBARS). Type of experiment: cell-based, Swine. The settings on record: Sus scrofa; compound 5 μM, 12.5 μg/mL LDL, 37° C., 4 hours; n = 2; read-out: Oxidation inhibition rate. The source says:
Swine aortas were obtained from a slaughterhouse, washed, and then transferred into cold PBS. Epithelial cells were collected from the aortas. Particularly, in order to collect the epithelial cells, intercostal blood vessel of the aorta was knotted, and one end of the aorta was clamped with a forceps. Fresh 0.2% collagenase (Sigma Type I) which had been filtered for sterilization was placed into the blood vessel, and another end of the blood vessel was clamped with a forceps so as to form a closed system. The aortas were cultured at 37° C. for 15-20 min, then collagenase solution was collected and centrifuged for 5 min. The resultant precipitate was resuspended in 7 mL epithelial cell medium (i.e. a DMEM/Ham'S F12 medium without phenolsulfonphthalein but supplemented with carbon stripped FBS (5%)), then seeded in a 100 mm dish and cultured at 37° C., 5% CO2. Twenty minutes later, the cells were rinsed with PBS, and a fresh medium was added. The above process was repeated for 24 hours. After about one week, the cells were confluent. Usually, these epithelial cells were fed twice per week, and seeded with a ratio of 1:7 after the action of trypsin during confluence. In the case that the compound (5 μM) to be evaluated existed, 12.5 μg/mL LDL cell-mediated oxidation was carried out at 37° C. for 4 hours. The result was expressed as the percentage of oxidation inhibition, which was determined by analyzing free aldehyde by the TBARS (Thiobarbituric acid reactive substances) method.

Experiment [3] deals with uteri. Kind of experiment: Uterotrophic/anti-uterotrophic assay in juvenile rats (4 days). The format is in vivo, rat. The settings on record: immature female Sprague-Dawley rats, i.p., dose not stated, n = 2. The method, then:
The estrogen and anti-estrogen properties of the compound can be tested in the uterotrophic assay (4 days) in juvenile rats. Immature rats (Sprague-Dawley rats) (female, 18 days old) were divided into 6 test groups. All these animals were i.p. injected with 10 μg of the compound, 100 μg of the compound per day, (100 μg of the compound and 1 μg 176 estradiol), so as to investigate anti-estrogens; and treated with 1 μg of 176 estradiol, wherein 50% DMSO/50% saline was used as injection media. These animals were sacrificed by CO2 asphyxiation on Day 4. Their uteri were extracted, and excessive fats and all liquid were removed. Then the wet weight of the uteri was measured. A part of one corner of the uterus was separated and analyzed histologically. The rest part was used to isolate whole RNA, so as to evaluate the expression of complement component 3 gene.

The test system of experiment [4] is DU-145 prostate cancer cells. Briefly: Effect on the proliferation of prostate cancer cells. The format is cell-based. The settings on record: Homo sapiens, DU-145, 120 h; 5 days, Cyquant kit; n = 2. As to the method: DU-145 prostate cancer cells were plated onto a 96-well dish, in a density of 2×10^3 cells/well in a MEM Eagles medium without phenol red. Such a medium comprises Earles' balanced salt, 1% antibiotic-antifungal agent, 2 mM glutamine, 0.1 mM nonessential amino acids, 1 mM sodium pyruvate and 10% carbon stripped FCS. The next day, the compound and vehicle (0.2% DMSO) were added, and the medium was refreshed every 48 hours. The cultivation was stopped 5 days later. Proliferation was analyzed using the above Cyquant kit.

Experiment [5] relates to uteri. Kind of experiment: 6 weeks spayed rats, protection of bone and heart: uterine weight. The format is in vivo, rat. The settings on record: spayed female Sprague-Dawley CD rats, 6 weeks treatment; n = 2. As to the method: One day after a Taconic Farm surgery, spayed or pseudo-spayed female Sprague-Dawley CD rats (weighted 240-275 g) were obtained. These animals were fed with food and sufficient water, 3 or 4 rats/cage, in a 12/12 (light/dark) cycle. After one day, all items of investigative treatments were started to these animals. The animals were administered 7 days/week following the instruction, continuously for 6 weeks. In each investigation, one group of rats that were not treated, comparably aged, and subjected to pseudo-surgeries was used as an untreated and estrogen-sufficient control group.
All treatments were conducted with specified concentrations in physiological saline solution containing 1% Tween 80, so that the amount of the treatment was 0.1 mL/100 g body weight. Then 176 estradiol was dissolved in corn oil (20 μg/mL), and administered subcutaneously to rats, 0.1 mL/rat. The result was measured according to the average body weight of each group, and the animals were dosed once […].
Five weeks after the beginning of the treatment and one week before the end of the treatment, the bone mineral density (BMD) of each rat was evaluated. The total densities and trabecular densities of the proximal ends of tibias in the anaesthetized rats were evaluated using XCT-960M (pQCT; Stratec Medizintechik, Pforzheim, Germany). The measuring procedure is shown as follows: 15 minutes before scanning, each rat was anaesthetized by intraperitoneal injection of 45 mg/kg ketamine, 8.5 mg/kg xylazine, and 1.5 mg/kg acepromazine.
The right hindlimb was drawn over the polycarbonate test tube with a diameter of 25 mm, and tied up on the acrylic acid scaffold, so that the anklebone was situated as a right angle and the knee joint was kept horizontally. The polycarbonate test tube was fixed on the sliding platform, so as to be orthogonal with the aperture of pQCTR. The platform was adjusted, so that the distal end of femur and the proximal end of tibia were within the scanning zone. The plane scan image was set as an image with a length of 10 mm and a linear resolution of 0.2 mm.
Soft tissues were eliminated automatically using iterative algorithm. The density (total density) of the remaining bone was shown in a unit of mg/cm^3. In a concentric spiral separator, 55% of the external surface of the bone was peeled off. The density (i.e. trabecular density) of the remaining bone was shown in a unit of mg/cm^3. One week after BMD evaluation, the rats were sacrificed by CO2 asphyxiation. Blood was collected so as to measure cholesterol. Uteri were extracted and weighted. Total cholesterol was measured by Boehringer-Mannheim Hitachi 911 clinic analyzer utilizing a cholesterol/HP kit. A statistical comparison was carried out by way of one-way ANOVA of Dunnet's test.

The structures appear in SMILES notation.

As usually defined, the IC50 is the midpoint of a concentration-inhibition curve. A higher IC50 goes with weaker potency. Usually inhibition stands for the percentage by which the read-out fell short of the control.

In the case of `O=C(c1ccc(OCC(=O)N2CCOCC2)cc1)c1oc2cc3c(cc2c1-c1ccc(O)cc1)CCCO3` [2-[4-(morpholine-2-oxo-ethoxy)benzoyl]-3-(4-hydroxyphenyl)-6,7-dihydrogen-5H-furo[3,2-g]chromene], the values for the half-inhibitory concentration (IC50) in experiment [1] and in experiment [4] were 46.7 µM and 23.7 µM, respectively. For the same compound, the inhibition at 5 µM in experiment [2] was 12.4%. In addition, the “percentage of weight gain of uteri” value with uteri [3] came to 9.8%; with uteri [5], 6.2%.
On the same counts, the results for `CCN(CC)CCOc1ccc(C(=O)c2oc3cc4c(cc3c2-c2ccc(O)cc2)CCCO4)cc1` [Example 56, 2-[4-(diethylaminoethoxy)benzoyl]-3-(4-hydroxyphenyl)-6,7-dihydrogen-5H-furo[3,2-g]chromene] are 22.1 µM, 17.1 µM, 5.1%, 12.2% and 15.1%.
On the same counts, the results for `CN(C)CCOc1ccc(C(=O)c2oc3cc4c(cc3c2-c2ccc(O)cc2)CCCO4)cc1` [Example 58, 2-[4-(dimethylaminoethoxy)benzoyl]-3-(4-hydroxyphenyl)-6,7-dihydrogen-5H-furo[3,2-g]chromene] are 4.6 µM, 43.6 µM, 6.8%, 0.6% and 3.2%.
`O=C(c1ccc(OCC(=O)N2CCCCC2)cc1)c1oc2cc3c(cc2c1-c1ccc(O)cc1)CCCO3` [Example 60, 2-[4-(piperidine-2-oxo-ethoxy)benzoyl]-3-(4-hydroxyphenyl)-6,7-dihydrogen-5H-furo[3,2-g]chromene]: the figures for the IC50 in experiment [1] and in experiment [4] were 11.5 µM and 14.5 µM, respectively. Also, the inhibition at 5 µM in experiment [2] was 22.6%. The “percentage of weight gain of uteri” value in the experiment on uteri [3] worked out at 8.7%; in the experiment with uteri [5] it was 12.4%.
On the same counts, the results for `CCN(CC)C(=O)COc1ccc(C(=O)c2oc3cc4c(cc3c2-c2ccc(O)cc2)CCCO4)cc1` [Example 62, 2-[4-(diethylamino-2-oxo-ethoxy)benzoyl]-3-(4-hydroxyphenyl)-6,7-dihydrogen-5H-furo[3,2-g]chromene] are 25.2 µM, 35.2 µM, 36.8%, 38.8% and 23.9%.
On the same counts, the results for `CN(C)C(=O)COc1ccc(C(=O)c2oc3cc4c(cc3c2-c2ccc(O)cc2)CCCO4)cc1` [Example 64, 2-[4-(dimethylamino-2-oxo-ethoxy)benzoyl]-3-(4-hydroxyphenyl)-6,7-dihydrogen-5H-furo[3,2-g]chromene] are 5.6 µM, 8.5 µM, 44.9%, 26.2% and 35.5%.
